Results taken from patent US20220087983A1, “ACTIVATING PYRUVATE KINASE R” (FORMA Therapeutics, Inc., priority 2020, published 2022).
pIC50: −log10 of the molar value. “And” between values parts separate entries of the source, which are not always exact repeats. Equal values may be shown once.

Legend:
PKR in mouse RBCs = biological target: T1, PKR in mouse RBCs (Mus musculus, UniProt P53657); experiment: PKR activation in mouse red blood cells; format: cell-based
T1 construct: endogenous in cells; host or cells: mouse RBCs freshly isolated from whole blood
T1 sequence (P53657 whole entry): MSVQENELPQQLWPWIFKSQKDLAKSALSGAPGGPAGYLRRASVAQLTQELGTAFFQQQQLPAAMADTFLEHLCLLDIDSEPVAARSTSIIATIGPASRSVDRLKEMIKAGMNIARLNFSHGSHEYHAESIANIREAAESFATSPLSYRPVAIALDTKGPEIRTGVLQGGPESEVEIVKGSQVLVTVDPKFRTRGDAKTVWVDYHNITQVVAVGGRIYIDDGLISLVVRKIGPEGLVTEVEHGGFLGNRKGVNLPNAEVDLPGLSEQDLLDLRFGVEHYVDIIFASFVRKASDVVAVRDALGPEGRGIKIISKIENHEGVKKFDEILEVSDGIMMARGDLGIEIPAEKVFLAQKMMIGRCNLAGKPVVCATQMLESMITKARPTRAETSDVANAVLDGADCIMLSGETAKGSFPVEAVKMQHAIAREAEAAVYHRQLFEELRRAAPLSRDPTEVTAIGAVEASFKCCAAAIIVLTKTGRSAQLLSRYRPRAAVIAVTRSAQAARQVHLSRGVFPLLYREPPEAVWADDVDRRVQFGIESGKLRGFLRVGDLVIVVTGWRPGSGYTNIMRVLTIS
Excerpt: Mouse RBCs were isolated fresh from whole blood using a Ficoll gradient and assayed with methods similar to those used in the human RBCs assays.

PKR(wt) = PKR(wt) (Homo sapiens, UniProt P30613); experiment: Luminescence Assay (Kinase Glo Plus) of PKR activation; format: biochemical; conditions: wild type; Luminescence Assay of Example 2
PKR(wt), sequence (P30613 whole entry): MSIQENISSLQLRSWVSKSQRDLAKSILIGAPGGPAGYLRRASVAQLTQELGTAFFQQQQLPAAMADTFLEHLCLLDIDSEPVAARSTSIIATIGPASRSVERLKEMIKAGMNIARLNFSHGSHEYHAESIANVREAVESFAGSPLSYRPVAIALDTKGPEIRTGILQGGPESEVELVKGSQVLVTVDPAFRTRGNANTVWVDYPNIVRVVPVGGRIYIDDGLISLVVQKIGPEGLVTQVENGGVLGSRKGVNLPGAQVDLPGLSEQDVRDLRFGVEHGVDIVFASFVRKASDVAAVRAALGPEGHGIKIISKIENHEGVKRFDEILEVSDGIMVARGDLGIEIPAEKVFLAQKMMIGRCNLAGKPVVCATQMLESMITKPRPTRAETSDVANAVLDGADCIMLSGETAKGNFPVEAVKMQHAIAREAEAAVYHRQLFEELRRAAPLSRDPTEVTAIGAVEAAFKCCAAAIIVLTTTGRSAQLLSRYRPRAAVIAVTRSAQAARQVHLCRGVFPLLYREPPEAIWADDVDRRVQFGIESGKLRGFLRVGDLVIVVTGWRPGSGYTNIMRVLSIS
Description: (§1) PKR Activating Compounds can be identified with the biochemical Luminescence Assay of Example 2. The PKR activating activity of a series of chemical compounds was evaluated using the Luminescence Assay below, including compounds designated Compound 1, and Compound 2, or mixtures thereof.
(§2) For each tested compound, the ability to activate PKR was determined using the following Luminescence Assay. The effect of phosphorylation of adenosine-5′-diphosphate (ADP) by PKR is determined by the Kinase Glo Plus Assay (Promega) in the presence or absence of FBP (D-fructose-1,6-diphosphate; BOC Sciences, CAS: 81028-91-3) as follows. Unless otherwise indicated, all reagents are purchased from Sigma-Aldrich. All reagents are prepared in buffer containing 50 mM Tris-HCl, 100 mM KCl, 5 mM MgCl2, and 0.01% Triton X100, 0.03% BSA, and 1 mM DTT. Enzyme and PEP (phosphoenolpyruvate) are added at 2× to all wells of an assay-ready plate containing serial dilutions of test compounds or DMSO vehicle. Final enzyme concentrations for PKR(wt), PKR(R510Q), and PKR(G332S) are 0.8 nM, 0.8 nM, and 10 nM respectively. Final PEP concentration is 100 μM. The Enzyme/PEP mixture is incubated with compounds for 30 minutes at RT before the assay is initiated with the addition of 2×ADP and KinaseGloPlus. Final concentration of ADP is 100 μM. […] For assays containing FBP, that reagent is added at 30 μM upon reaction initiation. Reactions are allowed to progress for 45 minutes at RT until luminescence is recorded by the BMG PHERAstar FS Multilabel Reader. The compound is tested in triplicate at concentrations ranging from 42.5 μM to 2.2 nM in 0.83% DMSO. AC50 measurements were obtained by the standard four parameter fit algorithm of ActivityBase XE Runner (max, min, slope and AC50). The AC50 value for a compound is the concentration (μM) at which the activity along the four parameter logistic curve fit is halfway between minimum and maximum activity.
(§3) As set forth in Table 2 below, AC50 values are defined as follows: ≤0.1 μM (+++); >0.1 μM and ≤1.0 μM (++); >1.0 μM and ≤40 μM (+); >40 μM (0).

PKR(R510Q) = PKR(R510Q) (Homo sapiens, UniProt P30613, R510Q); experiment: as above; format: biochemical; conditions: R510Q variant; Luminescence Assay of Example 2
PKR(R510Q), sequence (P30613 whole entry R510Q): as the sequence (P30613 whole entry) above, with R510Q counted along it
Description: as §1, §2, §3

PKR(G332S) = PKR(G332S) (Homo sapiens, UniProt P30613, G332S); experiment: as above; format: biochemical; conditions: G332S variant; Luminescence Assay of Example 2
PKR(G332S), sequence (P30613 whole entry G332S): as the sequence (P30613 whole entry) above, with G332S counted along it
Description: as §1, §2, §3

Log D7.4 = format: physicochemical; conditions: pH 7.4
aromatase = biological target: T2, aromatase (Homo sapiens, UniProt P11511); experiment: Aromatase inhibition; conditions: non-clinical testing
T2 sequence (P11511 1-503): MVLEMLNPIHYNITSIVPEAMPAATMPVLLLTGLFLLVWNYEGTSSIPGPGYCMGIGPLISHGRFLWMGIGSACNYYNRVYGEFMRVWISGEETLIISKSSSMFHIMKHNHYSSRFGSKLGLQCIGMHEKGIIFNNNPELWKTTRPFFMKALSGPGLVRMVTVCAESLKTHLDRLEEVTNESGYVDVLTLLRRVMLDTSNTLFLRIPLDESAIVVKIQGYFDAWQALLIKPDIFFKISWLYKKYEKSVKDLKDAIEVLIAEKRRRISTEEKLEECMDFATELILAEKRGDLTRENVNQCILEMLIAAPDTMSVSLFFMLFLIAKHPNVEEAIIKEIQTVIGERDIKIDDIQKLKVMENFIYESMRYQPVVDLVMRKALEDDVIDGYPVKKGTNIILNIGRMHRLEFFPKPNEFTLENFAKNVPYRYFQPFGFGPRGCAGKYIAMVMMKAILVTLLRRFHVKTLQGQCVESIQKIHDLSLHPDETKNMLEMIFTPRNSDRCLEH

[1] = test system: H295R adreno-cortical carcinoma cell line; experiment: Steroid modulation screen in vitro; format: cell-based; conditions: tested 200 to 0.0002 μM; only at the top concentration
Description: To assess potential effects on steroidogenesis, Compound 1 was screened for steroid modulation in vitro using the H295R adreno-cortical carcinoma cell line (at 200 to 0.0002 μM) and in an assay to monitor cell viability (MTT Kit). Compound 1 indicated steroid modulation potential (% over vehicle) only at 200 μM, the top concentration tested, with 100% cellular viability at concentrations≤20 μM (90% viability at 200 μM).

[2] = Preclinical safety: arrhythmia risk, mutagenicity, panels of receptors, enzymes, ion channels and kinases in vitro
CYP1A2 = experiment: CYP mRNA induction in cultured human hepatocytes; format: in vitro ADME; conditions: donors AIH, EUJ, HC5-40 individually
CYP2D6 = biological target: T3, CYP2D6 (Homo sapiens, UniProt P10635); experiment: Single substrate DDI assay, reversible CYP inhibition in human liver microsomes; format: in vitro ADME
T3 construct: from tissue; host or cells: human liver microsomes
T3 sequence (P10635 whole entry): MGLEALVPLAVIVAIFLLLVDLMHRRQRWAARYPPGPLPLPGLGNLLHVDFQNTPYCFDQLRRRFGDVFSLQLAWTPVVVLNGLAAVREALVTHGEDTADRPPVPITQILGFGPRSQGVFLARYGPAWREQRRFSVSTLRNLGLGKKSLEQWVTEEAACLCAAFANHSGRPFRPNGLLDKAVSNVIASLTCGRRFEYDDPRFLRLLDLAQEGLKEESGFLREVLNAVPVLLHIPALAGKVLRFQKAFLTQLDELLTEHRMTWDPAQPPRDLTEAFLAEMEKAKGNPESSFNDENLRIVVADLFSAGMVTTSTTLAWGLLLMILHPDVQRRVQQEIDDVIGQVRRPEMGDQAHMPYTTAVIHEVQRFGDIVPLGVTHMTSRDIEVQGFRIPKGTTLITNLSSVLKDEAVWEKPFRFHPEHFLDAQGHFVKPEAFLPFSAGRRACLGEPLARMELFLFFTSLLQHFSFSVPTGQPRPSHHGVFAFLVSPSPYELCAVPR

## O=C([C@H](CO)c1ccccc1)N1CC2=C(C1)CN(S(=O)(=O)c1cnc3c(c1)OCCO3)C2 (single isomer, unassigned) [Compound 1]
PKR in mouse RBCs; individual replicates 1-2
  Max − Min (%): <50% and <100%
PKR in mouse RBCs; mean
  Mean Max − Min (%): <100%
PKR(wt)
  AC50: < 1000 nM
PKR(R510Q)
  AC50: < 1000 nM
PKR(G332S)
  AC50: < 1000 nM
Log D7.4
  logD: 1.09
aromatase
  aromatase inhibition: absence of aromatase inhibition
[1]
  concentration at which steroid modulation potential (% over vehicle) was indicated: 200 µM
[2]
  preclinical evidence of arrhythmia risk, mutagenicity, or nonspecific binding activity: has not demonstrated any preclinical evidence of arrhythmia risk, mutagenicity, or nonspecific binding activity
CYP1A2; 0.033 μM
  mRNA Fold Induction CYP1A2: 1.07 fold and 0.989 fold and 1.23 fold
CYP1A2; 0.1 μM
  mRNA Fold Induction CYP1A2: 0.942 fold and 0.958 fold and 1.05 fold
CYP1A2; 0.33 μM
  mRNA Fold Induction CYP1A2: 0.887 fold and 1.10 fold and 1.20 fold
CYP1A2; 1 μM
  mRNA Fold Induction CYP1A2: 0.911 fold and 1.20 fold and 1.14 fold
CYP1A2; 3.3 μM
  mRNA Fold Induction CYP1A2: 0.892 fold and 1.24 fold and 1.11 fold
CYP1A2; 10 μM
  mRNA Fold Induction CYP1A2: 1.02 fold and 1.33 fold and 1.25 fold
CYP2D6
  pIC50: < 4.52
